Structures can show the parent of a compound that is named as a salt.
Assays:
[1] = biological target: T1, human factor XIa (Homo sapiens, UniProt P03951); assay: Measurement of FXIa inhibition (fluorogenic peptide substrate); format: biochemical; conditions: human factor XIa from Kordia, substrate Boc-Glu(OBzl)-Ala-Arg-AMC, 30 min at 22° C.; read-out: IC50 (FXIa inhibition)
T1 construct: purchased Kordia
Method: To determine the factor XIa inhibition of the substances according to the invention, a biochemical test system is used which utilizes the reaction of a peptidic factor XIa substrate to determine the enzymatic activity of human factor XIa. Here, factor XIa cleaves from the peptic factor XIa substrate the C-terminal aminomethylcoumarin (AMC), the fluorescence of which is measured. The determinations are carried out in microtitre plates.
Test substances are dissolved in dimethyl sulphoxide and serially diluted in dimethyl sulphoxide (3000 μM to 0.0078 μM; resulting final concentrations in the test: 50 μM to 0.00013 μM). In each case 1 μl of the diluted substance solutions are placed into the wells of white microtitre plates from Greiner (384 wells). Subsequently, the following are added successively: 20 μl of assay buffer (50 mmol/1 Tris buffer pH 7.4; 100 mmol/1 sodium chloride; 5 mmol/1 calcium chloride; 0.1% bovine serum albumin) and 20 μl of factor XIa from Kordia (0.45 nM in assay buffer). After 15 min of incubation, the enzyme reaction is started by addition of 20 μl of the factor XIa substrate Boc-Glu(OBzl)-Ala-Arg-AMC dissolved in assay buffer (10 μM in assay buffer) from Bachem, the mixture is incubated at room temperature (22° C.) for 30 min and fluorescence is then measured (excitation: 360 nm, emission: 460 nm). The measured emissions of the test batches with test substance are compared to those of control batches without test substance (only dimethyl sulphoxide instead of test substance in dimethyl sulphoxide), and the IC50 values are calculated from the concentration/activity relationships.

[2] = tested on: human and animal plasma; assay: Anticoagulatory activity: activated partial thromboplastin time (aPTT) in plasma; format: biochemical; conditions: in vitro in plasma, C.K. Prest kit, 37° C. for 3 minutes; plasma species of Table B not stated
Method: The anticoagulatory activity of the test substances is determined in vitro in human and animal plasma (for example mouse, rat, rabbit, pig and dog plasma). To this end, blood is drawn off in a mixing ratio of sodium citrate/blood of 1:9 using a 0.11 molar sodium citrate solution as receiver. Immediately after the blood has been drawn off, it is mixed thoroughly and centrifuged at about 4000 g for 15 minutes. The supernatant is pipetted off.
The activated partial thromboplastin time (aPTT) is determined in the presence of varying concentrations of test substance or the corresponding solvent using a commercial test kit (C.K. Prest from Diagnostica Stago). The test compounds are incubated with the plasma and the PTT reagent (cephalin, kaolin) at 37° C. for 3 minutes. Coagulation is then started by addition of 25 mM aqueous calcium chloride, and the time when coagulation occurs is determined. The concentration of test substance which brings about a 1.5-fold extension of the aPTT is determined.

T1 sequence (P03951 388-625 limits assumed): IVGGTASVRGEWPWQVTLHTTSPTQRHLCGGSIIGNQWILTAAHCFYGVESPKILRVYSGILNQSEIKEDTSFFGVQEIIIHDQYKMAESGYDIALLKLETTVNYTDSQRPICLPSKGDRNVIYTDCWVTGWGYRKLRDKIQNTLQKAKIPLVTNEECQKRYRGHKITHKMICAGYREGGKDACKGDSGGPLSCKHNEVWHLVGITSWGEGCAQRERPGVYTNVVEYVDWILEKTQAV
T1 sequence (P03951 19-387 partner limits assumed): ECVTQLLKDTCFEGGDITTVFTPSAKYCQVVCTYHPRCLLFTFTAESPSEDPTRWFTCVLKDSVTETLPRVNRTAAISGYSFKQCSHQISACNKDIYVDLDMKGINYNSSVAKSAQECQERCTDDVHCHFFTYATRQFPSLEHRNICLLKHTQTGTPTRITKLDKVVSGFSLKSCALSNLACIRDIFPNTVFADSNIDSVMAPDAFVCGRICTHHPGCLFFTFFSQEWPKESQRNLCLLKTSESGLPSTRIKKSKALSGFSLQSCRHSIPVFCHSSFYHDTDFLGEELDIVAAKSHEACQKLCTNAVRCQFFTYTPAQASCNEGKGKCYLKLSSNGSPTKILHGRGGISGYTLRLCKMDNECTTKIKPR

For `CCN(CC)CCNC(=O)c1ccc(-c2ccc(C[C@H](NC(=O)[C@H]3CC[C@H](CN)CC3)C(=O)Nc3ccc(-c4nn[nH]n4)cc3)cc2)c(C(F)(F)F)n1` [Example 1, N-alpha-{[trans-4-(Aminomethyl)cyclohexyl]carbonyl}-4-[6-{[2-(diethylamino)ethyl]carbamoyl}-2-(trifluoromethyl)pyridin-3-yl]-N-[4-(2H-tetrazol-5-yl)phenyl]-L-phenylalaninamide hydrochloride], the IC50 [1] was 2 nM and the “aPTT (concentration of test substance which brings about a 1.5-fold extension of the aPTT)” value [2] was 0.1 µmol/L.
With `Cc1nc(C(=O)NC2CCC(N(C)C)CC2)ccc1-c1ccc(C[C@H](NC(=O)[C@H]2CC[C@H](CN)CC2)C(=O)Nc2ccc(-c3nn[nH]n3)cc2)cc1` (stereo partly drawn) [Example 2, N-alpha-{[trans-4-(Aminomethyl)cyclohexyl]carbonyl}-4-(6-{[4-(dimethylamino)cyclohexyl]-carbamoyl}-2-methylpyridin-3-yl)-N-[4-(2H-tetrazol-5-yl)phenyl]-L-phenylalaninamide hydrochloride] the IC50 [1] was 1.9 nM and the “aPTT (concentration of test substance which brings about a 1.5-fold extension of the aPTT)” value [2] was 0.08 µmol/L.
In the case of `CCN(CC)CCNC(=O)c1ccc(-c2ccc(C[C@H](NC(=O)[C@H]3CC[C@H](CN)CC3)C(=O)Nc3ccc(-c4nn[nH]n4)cc3)cc2)c(C)n1` [Example 3, N-alpha-{[trans-4-(Aminomethyl)cyclohexyl]carbonyl}-4-(6-{[2-(diethylamino)ethyl]carbamoyl}-2-methylpyridin-3-yl)-N-[4-(2H-tetrazol-5-yl)phenyl]-L-phenylalaninamide hydrochloride], the IC50 [1] is reported as 5.6 nM and the “aPTT (concentration of test substance which brings about a 1.5-fold extension of the aPTT)” value [2] is reported as 0.16 µmol/L.
For `Cc1nc(C(=O)N[C@H]2CCCNC2=O)ccc1-c1ccc(C[C@H](NC(=O)[C@H]2CC[C@H](CN)CC2)C(=O)Nc2ccc(-c3nn[nH]n3)cc2)cc1` [Example 4, N-alpha-{[trans-4-(Aminomethyl)cyclohexyl]carbonyl}-4-(2-methyl-6-{[(3S)-2-oxopiperidin-3-yl]carbamoyl}pyridin-3-yl)-N-[4-(2H-tetrazol-5-yl)phenyl]-L-phenylalaninamide hydrochloride], the IC50 [1] was 1.3 nM and the “aPTT (concentration of test substance which brings about a 1.5-fold extension of the aPTT)” value [2] was 0.2 µmol/L.
For `Cc1cc(C(=O)NC2CCNCC2)ncc1-c1ccc(C[C@H](NC(=O)[C@H]2CC[C@H](CN)CC2)C(=O)Nc2ccc(-c3nnn[nH]3)cc2)cc1` [Example 5, N-alpha-{[trans-4-(Aminomethyl)cyclohexyl]carbonyl}-4-[4-methyl-6-(piperidin-4-ylcarbamoyl)pyridin-3-yl]-N-[4-(1H-tetrazol-5-yl)phenyl]-L-phenylalaninamide hydrochloride], the IC50 [1] was 1.9 nM and the “aPTT (concentration of test substance which brings about a 1.5-fold extension of the aPTT)” value [2] was 0.04 µmol/L.
`Cc1cc(C(=O)N2CC(C)NC(C)C2)ncc1-c1ccc(C[C@H](NC(=O)C2CCC(CN)CC2)C(=O)Nc2ccc(-c3nnn[nH]3)cc2)cc1` (stereo partly drawn) [Example 6, N-alpha-{[trans-4-(Aminomethyl)cyclohexyl]carbonyl}-4-{6-[(3,5-dimethylpiperazin-1-yl)carbonyl]-4-methylpyridin-3-yl}-N-[4-(1H-tetrazol-5-yl)phenyl]-L-phenylalaninamide hydrochloride] was tested, and the IC50 [1] was 4.1 nM and the “aPTT (concentration of test substance which brings about a 1.5-fold extension of the aPTT)” value [2] was 0.04 µmol/L.
For `CCN(CC)C1CCC(NC(=O)c2cc(C)c(-c3ccc(C[C@H](NC(=O)[C@H]4CC[C@H](CN)CC4)C(=O)Nc4ccc(-c5nnn[nH]5)cc4)cc3)cn2)CC1` (stereo partly drawn) [Example 7, N-alpha-{[trans-4-(Aminomethyl)cyclohexyl]carbonyl}-4-(6-{[4-(diethylamino)cyclohexyl]-carbamoyl}-4-methylpyridin-3-yl)-N-[4-(1H-tetrazol-5-yl)phenyl]-L-phenylalaninamide hydrochloride], the IC50 [1] was 2.6 nM and the “aPTT (concentration of test substance which brings about a 1.5-fold extension of the aPTT)” value [2] was 0.04 µmol/L.
In the case of `Cc1cc(C(=O)NC2CCNCC2F)ncc1-c1ccc(C[C@H](NC(=O)C2CCC(CN)CC2)C(=O)Nc2ccc(-c3nnn[nH]3)cc2)cc1` (stereo partly drawn) [Example 8, N-alpha-{[trans-4-(Aminomethyl)cyclohexyl]carbonyl}-4-{6-[(3-fluoropiperidin-4-yl)carbamoyl]-4-methylpyridin-3-yl}-N-[4-(1H-tetrazol-5-yl)phenyl]-L-phenylalaninamide hydrochloride], the IC50 [1] is reported as 2.2 nM and the “aPTT (concentration of test substance which brings about a 1.5-fold extension of the aPTT)” value [2] is reported as 0.05 µmol/L.
With `CCN(CC)CCCNC(=O)c1cc(C)c(-c2ccc(C[C@H](NC(=O)[C@H]3CC[C@H](CN)CC3)C(=O)Nc3ccc(-c4nnn[nH]4)cc3)cc2)cn1` [Example 9, N-alpha-{[trans-4-(Aminomethyl)cyclohexyl]carbonyl}-4-(6-{[3-(diethylamino)propyl]-carbamoyl}-4-methylpyridin-3-yl)-N-[4-(1H-tetrazol-5-yl)phenyl]-L-phenylalaninamide hydrochloride] the IC50 [1] was 5.2 nM and the “aPTT (concentration of test substance which brings about a 1.5-fold extension of the aPTT)” value [2] was 0.05 µmol/L.
For `Cc1cc(C(=O)NC2CC3CCC(C2)N3)ncc1-c1ccc(CC(NC(=O)C2CCC(CN)CC2)C(=O)Nc2ccc(-c3nnn[nH]3)cc2)cc1` [Example 10, N-alpha-{[trans-4-(Aminomethyl)cyclohexyl]carbonyl}-4-{6-[(1R,5S)-8-azabicyclo[3.2.1]oct-3-ylcarbamoyl]-4-methylpyridin-3-yl}-N-[4-(1H-tetrazol-5-yl)phenyl]-L-phenylalaninamide hydrochloride], the IC50 [1] was 3 nM and the “aPTT (concentration of test substance which brings about a 1.5-fold extension of the aPTT)” value [2] was 0.07 µmol/L.
For `Cc1cc(C(=O)NC2CC3COCC(C2)N3)ncc1-c1ccc(C[C@H](NC(=O)C2CCC(CN)CC2)C(=O)Nc2ccc(-c3nnn[nH]3)cc2)cc1` (stereo partly drawn) [Example 11, N-alpha-{[trans-4-(Aminomethyl)cyclohexyl]carbonyl}-4-[4-methyl-6-(3-oxa-9-azabicyclo[3.3.1]non-7-ylcarbamoyl)pyridin-3-yl]-N-[4-(1H-tetrazol-5-yl)phenyl]-L-phenylalaninamide hydrochloride], the IC50 [1] was 5.2 nM and the “aPTT (concentration of test substance which brings about a 1.5-fold extension of the aPTT)” value [2] was 0.07 µmol/L.
`Cc1cc(C(=O)NCCCN(C)C)ncc1-c1ccc(C[C@H](NC(=O)[C@H]2CC[C@H](CN)CC2)C(=O)Nc2ccc(-c3nnn[nH]3)cc2)cc1` [Example 12, N-alpha-{[trans-4-(Aminomethyl)cyclohexyl]carbonyl}-4-(6-{[3-(dimethylamino)propyl]-carbamoyl}-4-methylpyridin-3-yl)-N-[4-(1H-tetrazol-5-yl)phenyl]-L-phenylalaninamide hydrochloride] was tested, and the IC50 [1] was 4.8 nM and the “aPTT (concentration of test substance which brings about a 1.5-fold extension of the aPTT)” value [2] was 0.08 µmol/L.
`Cc1nc(C(=O)NC2CCN(C)CC2)ccc1-c1ccc(C[C@H](NC(=O)[C@H]2CC[C@H](CN)CC2)C(=O)Nc2ccc(-c3nnn[nH]3)cc2)cc1` [Example 30, N-alpha-{[trans-4-(Aminomethyl)cyclohexyl]carbonyl}-4{-2-methyl-6-[(1-methylpiperidin-4-yl)carbamoyl]pyridin-3-yl}-N-[4-(1H-tetrazol-5-yl)phenyl]-L-phenylalaninamide hydrochloride] showed an IC50 [1] of 5.5 nM.
Compound `Cc1nc(C(=O)N[C@H]2CC[C@H](N)CC2)ccc1-c1ccc(C[C@H](NC(=O)[C@H]2CC[C@H](CN)CC2)C(=O)Nc2ccc(-c3nn[nH]n3)cc2)cc1` [Example 31, 4-{6-[(trans-4-Aminocyclohexyl)carbamoyl]-2-methylpyridin-3-yl}-N-alpha-{[trans-4-(aminomethyl)cyclohexyl]carbonyl}-N-[4-(2H-tetrazol-5-yl)phenyl]-L-phenylalaninamide hydrochloride] has an IC50 [1] of 1.9 nM.
With `Cc1cc(C(=O)N2CCNC(=O)C2)ncc1-c1ccc(C[C@H](NC(=O)[C@H]2CC[C@H](CN)CC2)C(=O)Nc2ccc(-c3nnn[nH]3)cc2)cc1` [Example 32, N-alpha-{[trans-4-(Aminomethyl)cyclohexyl]carbonyl}-4-{4-methyl-6-[(3-oxopiperazin-1-yl)carbonyl]pyridin-3-yl}-N-[4-(1H-tetrazol-5-yl)phenyl]-L-phenylalaninamide hydrochloride] the IC50 [1] was 1.8 nM.
